# In patent US20240415915A1, “TRADITIONAL CHINESE MEDICINE FERMENTED PREPARATION FOR PREVENTING AND TREATING GOUT, ITS PREPARATION METHOD AND APPLICATION” (priority 2023, published 2024):
# Test system: mice with hyperuricemia
# Experiment: Effect on serum uric acid (UA) levels in mice with hyperuricemia
# Format: in vivo
# Settings: 0.02 g/kg orally once a day, 7 days; hypoxanthine + potassium oxonate model; model group 768.30, blank 145.80
# Description: 60 mice (each mouse with a weight of (20±2) g) are taken and randomly divided into 6 groups, with 10 mice in each group, denoted as a blank group, a model group, a benzbromarone group, a high dose traditional Chinese medicine fermented preparation group, a medium dose traditional Chinese medicine fermented preparation group, and a low dose traditional Chinese medicine fermented preparation group. After 5 days of adaptive breeding, except for the blank group (injected with an equal volume of physiological saline), the mice in other groups are injected intraperitoneally with 0.3 g/kg/mouse of hypoxanthine +0.05 g/kg/mouse of potassium oxonate (i.e., oxonic acid potassium salt) daily for model replication, for 7 consecutive days. At the same time, the mice in the benzbromarone group are administered orally at a dose of 0.02 g/kg/mouse once a day, the mice in the high, medium and low dose traditional Chinese medicine fermented preparation groups are administered orally at a dose of 2 mL/kg/mouse, 1 mL/kg/mouse, and 0.5 mL/kg/mouse once, respectively, while the mice in the blank group and the model group are given physiological saline (1 mL/kg) orally, for 7 consecutive days. After 7 days, tail vein blood is collected from the mice in all groups, and then centrifuged to separate […] to obtain serum, the serum is taken to measure serum UA levels.
smiles,measurement,value
"CCc1oc2ccccc2c1C(=O)c1cc(Br)c(O)c(Br)c1 [Benzbromarone, benzbromarone]",Serum UA level,302.30 µmol/L
